Source: patent US11215617B2, “Treatment of metastatic prostate cancer” (The Regents of the University of California, priority 2013, dated 2022)
“Also recorded” adds a separate entry of the source. Where a SMILES comes first, the peptide text is derived from it. The star is where a group is joined. Cbz = O=C(OCc1ccccc1)*

Experiments:
LNCaP-s17 cells [1] = experiment: Cell growth assay; format: cell-based, human
AR-V7 = target: T1, AR-V7 (Homo sapiens, UniProt P10275); experiment: AR-V7 protein degradation after cycloheximide block in CWR22rv1 cells; format: cell-based; details: MG132 5 μM, cycloheximide 50 μg/mL, 2 μM niclosamide, 8 h
T1 construct: CWR22rv1 cells, which express high endogenous AR-V7; endogenous in cells; host or cells: CWR22rv1
T1 sequence (P10275 1-644 isoform P10275-3): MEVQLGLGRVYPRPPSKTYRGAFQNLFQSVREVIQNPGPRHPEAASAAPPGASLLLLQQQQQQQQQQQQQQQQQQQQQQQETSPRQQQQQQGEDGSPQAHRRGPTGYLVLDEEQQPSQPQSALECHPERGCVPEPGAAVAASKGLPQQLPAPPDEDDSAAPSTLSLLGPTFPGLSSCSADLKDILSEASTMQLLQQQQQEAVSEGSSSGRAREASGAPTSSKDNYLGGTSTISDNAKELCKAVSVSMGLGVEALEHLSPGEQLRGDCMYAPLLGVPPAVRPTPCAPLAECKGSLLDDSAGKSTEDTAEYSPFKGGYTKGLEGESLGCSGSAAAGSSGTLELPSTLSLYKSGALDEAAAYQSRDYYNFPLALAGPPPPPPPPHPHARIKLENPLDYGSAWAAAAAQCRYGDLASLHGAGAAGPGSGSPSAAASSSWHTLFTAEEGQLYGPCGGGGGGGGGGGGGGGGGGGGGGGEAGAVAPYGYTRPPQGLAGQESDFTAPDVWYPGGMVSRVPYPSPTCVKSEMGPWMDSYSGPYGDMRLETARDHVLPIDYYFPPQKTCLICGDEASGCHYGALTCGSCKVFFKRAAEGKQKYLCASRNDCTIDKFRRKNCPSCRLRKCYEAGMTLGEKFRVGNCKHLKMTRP
Description: At specified time points, cells were harvested, and the levels of AR-V7 protein were measured by Western blot using antibodies specific against AR-V7. […] The cell lysates were prepared at 8 h. AR-V7 protein levels were determined by Western blot analysis using antibodies specifically against AR-V7 and tubulin as a control.
At specified time points, cells were harvested, and the levels of AR-V7 protein were measured by Western blot using antibodies specific against AR-V7.

[2] = test system: prostate cancer cells (C4-2 neo, C4-2 AR-V7, CWR22rv1); experiment: Cell growth assay (cell numbers counted, cell survival rate); format: cell-based; details: 0.5 μM niclosamide, 48 hours, media containing FBS
Description: (§1) Total cell numbers were counted and the cell survival rate (%) was calculated. Cell survival rate (%)=(Treatment group cell number/Control group cell number)×100%. […] Total cell numbers were counted after 2, 4, and 7 days. […] The cells were treated as indicated and total cell numbers were counted.

[3] = test system: pz-HPV7 normal prostate epithelial cells; experiment: as above; format: cell-based; details: 0.5 μM niclosamide, 48 hours
Description: as §1

[4] = test system: prostate cancer cells (C4-2 neo, C4-2 AR-V7, CWR22rv1); experiment: Cell death ELISA (apoptosis); format: cell-based; details: 0.5 μM niclosamide, 48 hours
Description: (§2) Floating and attached cells were collected and homogenized in 400 μL of incubation buffer. The wells were coated with antihistone antibodies and incubated with the lysates, horseradish peroxidase-conjugated anti-DNA antibodies, and the substrate. Absorbance was measured at 405 nm.

pz-HPV7 cells = experiment: Cell death ELISA (apoptosis); format: cell-based; details: 0.5 μM niclosamide, 48 hours
Description: as §2

[5] = test system: prostate cancer cells (CWR22rv1, C4-2 AR-V7, C4-2 neo); experiment: Clonogenic assay; format: cell-based; details: 0, 0.5, 1.0 μM niclosamide
C4-2B MR cells [6] = experiment: Clonogenic assay; format: cell-based
AR = experiment: PSA luciferase assay in LNCaP cells, DHT induced; format: cell-based, human; details: niclosamide or enzalutamide with DHT overnight
Description: LNCaP, C4-2 or 293 cells were transfected with pGL3-PSA6.0-Luc, pGL3-AREI/II-Luc reporters along with AR-V7, for example as indicated in the figures, in FBS or CS-FBS condition. Cell lysates were subjected to luciferase assays with the Luciferase Assay System (Promega).

PSA [7] = experiment: PSA ELISA of culture supernatants of C4-2 AR-V7 cells; format: cell-based; details: CS-FBS, 1.0 μM niclosamide overnight
Description: PSA levels were measured in the culture supernatants using ELISA (United Biotech, Inc., Mountain View, Calif.) according to the manufacturer's instructions.

PSA [8] = experiment: Western blot of PSA protein in C4-2 AR-V7 cells; format: cell-based; details: CS-FBS, 1.0 μM niclosamide or 20 μM enzalutamide overnight
Description: (§4) Whole cell protein extracts were resolved on SDS-PAGE and proteins were transferred to nitrocellulose membranes. […] Tubulin was used to monitor the amounts of samples applied. Following secondary antibody incubation, immunoreactive proteins were visualized with an enhanced chemiluminescence detection system (Millipore, Billerica, Mass.).

[9] = test system: recruitment of AR-V7 to PSA promoter; experiment: ChIP assay in C4-2 AR-V7 cells; format: cell-based; details: CS-FBS 3 days, niclosamide (0.5 μM and 1 μM) or 20 μM enzalutamide overnight
Description: C4-2 neo and C4-2 AR-V7 cells were treated as noted herein. DNA-AR protein complexes were cross-linked inside the cells by the addition of 1% formaldehyde. Whole-cell extracts were prepared by sonication, and an aliquot of the cross-linked DNA-protein complexes was immunoprecipitated by incubation with the AR-specific antibody (AR-441 obtained from Santa Cruz Biotechnology) overnight at 4° C. with rotation. Chromatin-antibody complexes were isolated from solution by incubation with protein A/G agarose beads for 1 hour at 4° C. with rotation. The bound DNA-protein complexes were washed and eluted from beads with elution buffer (1% SDS and 0.1 mol/L NaHCO3), crosslinking was reversed, and DNA was extracted. The resulting chromatin preparations were analyzed by PCR using primers spanning either the proximal or the distal enhancer AREs of the PSA promoter. Isotype-matched IgG was used as control.

C4-2B MR cells [10] = experiment: Cell growth assay; format: cell-based; details: different concentrations, 48 hours
Description: as §1

CWR22rv1 cells [11] = experiment: Cell growth assay; format: cell-based; details: dose and time dependent
Description: Total cell numbers were counted after 3 or 5 days. […] Total cell numbers were counted or the cell survival rate (%) was calculated. Cell survival rate (%)=(Treatment group cell number/Control group cell number)×100%.

C4-2B and C4-2B MR cells = experiment: Growth or viability (FIG. 22); format: cell-based
[12] = test system: C4-2B and C4-2B AbiR cells; experiment: Growth or viability (FIG. 23); format: cell-based
STAT3 [13] = experiment: STAT3 activation in LNCaP-s17 cells; format: cell-based, human
Description: as §4

prostate cancer cells = experiment: Cell growth, migration, invasion and colony formation (FIGS. 16-19); format: cell-based; details: effect appears to be dose dependent
LNCaP-s17 cells [14] = experiment: Cell migration or invasion (FIG. 24); format: cell-based, human
LNCaP-STAT3C cells = experiment: Cell migration or invasion (FIG. 25); format: cell-based, human
CWR22rv1 xenografts = experiment: CWR22rv1 xenograft tumor growth in SCID mice; format: in vivo; details: 3 weeks
Description: (§3) CWR22rv1 cells (3 million) were mixed with matrigel (1:1) and injected subcutaneously into the flanks of 6-7 week male SCID mice. […] Tumors were measured using calipers twice a week and tumor volumes were calculated using length×width2/2. Tumor tissues were harvested after 3 weeks of treatment.
Tumors were measured using calipers twice a week and tumor volumes were calculated using length×width2/2. Tumor tissues were harvested after 3 weeks of treatment. The results are depicted in FIGS. 40A-40D.
as §3, with “For the in vivo experiment, CWR22Rv1” for “CWR22rv1”, “(4” for “(3”, “of” for “of 6-7 week”, “treatment. The results are depicted in FIGS. 42A-42D.” for “treatment.”
CWR22Rv1 cells (4 million) were mixed with matrigel (1:1) and injected subcutaneously into the flanks of 6-7 week male SCID mice. […] Tumors were measured using calipers twice a week and tumor volumes were calculated using length×width2/2. Tumor tissues were harvested after 3 weeks of treatment.

STAT3 [15] = details: DU145 cells, shown previously; cited from earlier work
cancer cells = details: some reports suggest; cited from earlier work
normal cells = details: some reports suggest; cited from earlier work
[16] = test system: cancer cell metastasis and migration; details: in vitro and in vivo, reported; cited from earlier work
CWR22rv1 cells [17] = experiment: Clonogenic assay
[18] = C4-2B MR cells, 0.5 μM or 1.0 μM niclosamide, 10 μM or 20 μM enzalutamide

**Q.** Which “reversal of enzalutamide resistance” value (LNCaP-s17 cells [1]; 10 μM AG490 with 20 μM enzalutamide, 48 h) does the source give for N#C/C(=C/c1ccc(O)c(O)c1)C(=O)NCc1ccccc1 [AG490] here?
**A.** reverse enzalutamide resistance

**Q.** With CC(C)C[C@@H](C=O)NC(=O)[C@H](CC(C)C)NC(=O)[C@H](CC(C)C)NC(=O)OCc1ccccc1 [MG132] (Cbz-Leu-Leu-Leu-aldehyde) as the compound, how does the “niclosamide effect on AR-V7 protein levels in presence of MG132” value (AR-V7) read?
**A.** able to retard the niclosamide effect on AR-V7 protein levels

**Q.** Which cell growth [2] does the source give for O=C(Nc1ccc([N+](=O)[O-])cc1Cl)c1cc(Cl)ccc1O [niclosamide, (5-chloro-N-2chloro-4-nitro-phenyl)-2-hydroxybenzamide] here?
**A.** significantly inhibited cell growth

**Q.** What about the cell growth [3] of the same compound?
**A.** little effects

**Q.** And the “cell apoptosis (cell death ELISA)” value [4]?
**A.** significantly induced cell apoptosis

**Q.** And the “cell apoptosis (cell death ELISA)” value (pz-HPV7 cells)?
**A.** little effect

**Q.** And the clonogenic ability [5]?
**A.** significantly inhibited clonogenic ability of prostate cancer cells in a dose dependent manner

**Q.** What about the colony formation (C4-2B MR cells [6]; [18]) of the same compound?
**A.** significantly inhibited colony formation; also recorded: inhibited colony formation in a dose dependent manner

**Q.** And the colony size (C4-2B MR cells [6]; [18])?
**A.** significantly inhibited the colony size

**Q.** And the colony formation (C4-2B MR cells [6]; C42B MR cells, 0.25 μM niclosamide (FIGS. 37 and 38))?
**A.** significantly inhibits colony formation

**Q.** What about the “enhancement of enzalutamide inhibition of colony formation” value (C4-2B MR cells [6]; C42B MR cells, 0.25 μM niclosamide with 20 μM enzalutamide) of the same compound?
**A.** significantly enhances enzalutamide inhibition of colony formation

**Q.** And the “DHT induced AR transcriptional activity” value (AR)?
**A.** dramatically inhibited DHT induced AR transcriptional activity

**Q.** What about the “PSA levels (ELISA)” value (PSA [7]) of the same compound?
**A.** significantly inhibited PSA levels

**Q.** And the “PSA protein expression (western blot)” value (PSA [8])?
**A.** significantly inhibited PSA protein expression

**Q.** What about the “recruitment of AR-V7 to PSA promoter” value [9] of the same compound?
**A.** significantly reduced recruitment of AR-V7 to PSA promoter

**Q.** What about the “cell growth (total cell numbers)” value (C4-2B MR cells [10]) of the same compound?
**A.** significantly inhibited; also recorded: inhibited C4-2B MR cell growth in a dose dependent manner

**Q.** And the “enhancement of bicalutamide effects in vitro” value (CWR22rv1 cells [11])?
**A.** significantly enhanced bicalutamide effects

**Q.** And the “enhancement of the effect of enzalutamide on growth or viability” value (C4-2B and C4-2B MR cells)?
**A.** enhances the effect of enzalutamide

**Q.** What about the “enhancement of the effect of abiraterone on growth or viability” value [12] of the same compound?
**A.** enhances the effect of arbiraterone

**Q.** And the STAT3 activation (STAT3 [13])?
**A.** significantly inhibited STAT3 activation; also recorded: inhibited constitutively active STAT3 in a dose dependent manner

**Q.** What about the “cell growth, time dependent experiment” value (LNCaP-s17 cells [1]; 20 μM enzalutamide and 0.25 μM niclosamide individually or in combination, 2, 4 and 7 days) of the same compound?
**A.** little effect

**Q.** What about the cell growth (prostate cancer cells) of the same compound?
**A.** inhibits

**Q.** What about the colony formation (prostate cancer cells) of the same compound?
**A.** inhibits

**Q.** What about the invasion (prostate cancer cells) of the same compound?
**A.** inhibits

**Q.** And the migration (prostate cancer cells)?
**A.** inhibits

**Q.** What about the “cell migration or invasion” value (LNCaP-s17 cells [14]) of the same compound?
**A.** inhibits cell migration or invasion

**Q.** And the “cell migration or invasion” value (LNCaP-STAT3C cells)?
**A.** inhibits cell migration or invasion

**Q.** What about the “enhancement of bicalutamide effects in vivo” value (CWR22rv1 xenografts; bicalutamide 25 mg/kg p.o. + niclosamide 25 mg/kg i.p., 5 days per week) of the same compound?
**A.** enhanced bicalutamide treatment; also recorded: significantly enhanced bicalutamide effects

**Q.** What about the tumor volume (CWR22rv1 xenografts; enzalutamide 25 mg/kg p.o., niclosamide 25 mg/kg i.p., or both) of the same compound?
**A.** decreased the tumor volume

**Q.** What about the xenograft tumor growth (CWR22rv1 xenografts; niclosamide 200 mg/kg p.o. B.I.D., 5 days per week) of the same compound?
**A.** significantly inhibited Rv1 xenograft tumor growth

**Q.** And the STAT3 expression (STAT3 [15])?
**A.** able to inhibit STAT3 expression

**Q.** What about the “activity against cancer cells” value (cancer cells) of the same compound?
**A.** active against cancer cells

**Q.** What about the “viability of normal cells” value (normal cells) of the same compound?
**A.** minimal effects on the viability of normal cells

**Q.** And the “cancer cell metastasis and migration” value [16]?
**A.** inhibit cancer cell metastasis and migration in vitro and in vivo

**Q.** What about the colony formation (CWR22rv1 cells [17]; CWR22rv1 cells, 0, 0.5 μM or 1.0 μM niclosamide) of the same compound?
**A.** inhibited colony formation in a dose dependent manner

**Q.** And the “enhancement of enzalutamide inhibition of colony formation” value (CWR22rv1 cells [17]; CWR22rv1 cells, 0.25 μM niclosamide with 20 μM enzalutamide)?
**A.** significantly enhances enzalutamide inhibition of colony formation
